Results: ChEMBL document CHEMBL5620405, “A platform for the rapid synthesis of molecular glues (Rapid-Glue) under miniaturized conditions for direct biological screening” (Eur J Med Chem, 2023)
Activity calls are given as the source filed them. The calls are words filed in the database; no cut-off is given here.

Tests used:
MOLT-4 [1] = experiment: Antiproliferative activity against human MOLT-4 cells assessed as cell viability at 1 uM measured after 72 hrs by Alamar blue assay; format: functional; settings: read-out: Activity
RS4-11 [2] = experiment: Antiproliferative activity against human RS4-11 cells assessed as cell viability at 1 uM measured after 72 hrs by Alamar blue assay; format: functional; settings: read-out: Activity
[3] = target: T1, Protein cereblon/Eukaryotic peptide chain release factor GTP-binding subunit ERF3A (Homo sapiens, UniProt Q96SW2+P15170); experiment: Molecular glue activity at CRBN/GSPT1 in human RS4-11 cells assessed as induction of GSPT1 degradation by western blot analysis; format: cell-based
Target sequence in this assay (Q96SW2 whole entry): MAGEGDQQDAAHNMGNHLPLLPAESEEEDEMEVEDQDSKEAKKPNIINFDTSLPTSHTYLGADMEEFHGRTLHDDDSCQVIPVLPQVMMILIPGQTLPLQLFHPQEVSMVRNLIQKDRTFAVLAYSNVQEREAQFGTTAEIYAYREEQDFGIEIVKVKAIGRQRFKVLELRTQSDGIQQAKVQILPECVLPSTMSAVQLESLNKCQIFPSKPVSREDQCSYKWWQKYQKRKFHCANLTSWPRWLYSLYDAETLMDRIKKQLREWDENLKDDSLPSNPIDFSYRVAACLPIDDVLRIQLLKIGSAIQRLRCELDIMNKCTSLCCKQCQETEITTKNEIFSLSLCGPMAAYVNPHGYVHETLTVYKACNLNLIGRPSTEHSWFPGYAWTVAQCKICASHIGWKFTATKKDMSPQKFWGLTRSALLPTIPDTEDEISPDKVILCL
Target sequence in this assay (P15170 whole entry): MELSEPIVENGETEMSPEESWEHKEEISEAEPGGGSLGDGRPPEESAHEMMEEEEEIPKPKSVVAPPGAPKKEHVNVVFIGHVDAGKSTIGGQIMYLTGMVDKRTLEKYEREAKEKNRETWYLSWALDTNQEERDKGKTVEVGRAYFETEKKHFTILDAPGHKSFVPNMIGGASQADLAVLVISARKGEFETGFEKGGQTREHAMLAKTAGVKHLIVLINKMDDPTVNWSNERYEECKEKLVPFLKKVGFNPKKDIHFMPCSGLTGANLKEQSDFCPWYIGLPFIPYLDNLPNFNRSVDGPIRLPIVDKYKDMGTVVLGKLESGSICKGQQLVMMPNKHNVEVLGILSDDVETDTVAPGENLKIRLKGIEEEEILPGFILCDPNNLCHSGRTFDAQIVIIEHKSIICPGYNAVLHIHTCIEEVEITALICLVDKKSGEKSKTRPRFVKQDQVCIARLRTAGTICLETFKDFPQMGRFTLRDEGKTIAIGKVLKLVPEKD

MM1.S = experiment: Antiproliferative activity against human MM1.S cells assessed as reduction in cell viability measured after 72 hrs by Alamar blue assay; format: functional, cell-based
RS4-11 [4] = experiment: Antiproliferative activity against human RS4-11 cells assessed as reduction in cell viability measured after 72 hrs by Alamar blue assay; format: functional, cell-based; settings: RS4-11, 72 h
MOLT-4 [5] = experiment: Antiproliferative activity against human MOLT-4 cells assessed as reduction in cell viability measured after 72 hrs by Alamar blue assay; format: functional, cell-based; settings: MOLT-4, 72 h
RS4-11 [6] = experiment: Antiproliferative activity against human RS4-11 cells assessed as cell viability at 0.5 uM measured after 72 hrs by Alamar blue assay; format: functional; settings: read-out: Activity
RS4-11 [7] = experiment: Antiproliferative activity against human RS4-11 cells assessed as cell viability at 0.1 uM measured after 72 hrs by Alamar blue assay; format: functional; settings: read-out: Activity
[8] = target: T1, Protein cereblon/Eukaryotic peptide chain release factor GTP-binding subunit ERF3A; experiment: Molecular glue activity at CRBN/GSPT1 in human RS4-11 cells assessed as induction of GSPT1 degradation at 0.1 uM measured after 24 hrs by western blot analysis; format: cell-based
Target sequence in this assay (P15170 whole entry, looked up): as the sequence (P15170 whole entry) above
Target sequence in this assay (Q96SW2 whole entry, looked up): as the sequence (Q96SW2 whole entry) above

[9] = target: T1, Protein cereblon/Eukaryotic peptide chain release factor GTP-binding subunit ERF3A; experiment: Molecular glue activity at CRBN/GSPT1 in human RS4-11 cells assessed as induction of GSPT1 degradation measured after 12 hrs by western blot analysis; format: cell-based; settings: dose 0.0001-10 µM
Target sequence in this assay (P15170 whole entry, looked up): as the sequence (P15170 whole entry) above
Target sequence in this assay (Q96SW2 whole entry, looked up): as the sequence (Q96SW2 whole entry) above

[10] = target: T1, Protein cereblon/Eukaryotic peptide chain release factor GTP-binding subunit ERF3A; experiment: Molecular glue activity at CRBN/GSPT1 in human RS4-11 cells assessed as induction of GSPT1 degradation by measuring reduction in GSPT1 level measured for 6 hrs by western blot analysis; format: cell-based; design: scale not given: the % may be the effect or the level left
Target sequence in this assay (P15170 whole entry, looked up): as the sequence (P15170 whole entry) above
Target sequence in this assay (Q96SW2 whole entry, looked up): as the sequence (Q96SW2 whole entry) above

[11] = target: T1, Protein cereblon/Eukaryotic peptide chain release factor GTP-binding subunit ERF3A; experiment: Molecular glue activity at CRBN/GSPT1 in human RS4-11 cells assessed as downregulation of GSPT1 expression at 1 uM measured after 6 hrs by TMT-mass spectrometry; format: cell-based
Target sequence in this assay (P15170 whole entry, looked up): as the sequence (P15170 whole entry) above
Target sequence in this assay (Q96SW2 whole entry, looked up): as the sequence (Q96SW2 whole entry) above

[12] = target: T1, Protein cereblon/Eukaryotic peptide chain release factor GTP-binding subunit ERF3A; experiment: Molecular glue activity at CRBN/GSPT1 in human RS4-11 cells assessed as induction of GSPT1 degradation at 1 uM measured after 4 hrs by western blot analysis; format: cell-based
Target sequence in this assay (P15170 whole entry, looked up): as the sequence (P15170 whole entry) above
Target sequence in this assay (Q96SW2 whole entry, looked up): as the sequence (Q96SW2 whole entry) above

[13] = target: T1, Protein cereblon/Eukaryotic peptide chain release factor GTP-binding subunit ERF3A; experiment: Molecular glue activity at CRBN/GSPT1 in human RS4-11 cells assessed as induction of GSPT1 degradation at 1 uM by western blot analysis; format: cell-based; settings: time 0.5-24 hrs, TDE = time-dependent effect
Target sequence in this assay (P15170 whole entry, looked up): as the sequence (P15170 whole entry) above
Target sequence in this assay (Q96SW2 whole entry, looked up): as the sequence (Q96SW2 whole entry) above

Row | SMILES | DC50 [3] [nM] | IC50 (MM1.S) [nM] | IC50 (RS4-11 [4]) [nM] | IC50 (MOLT-4 [5]) [nM] | viability at 1 µM (MOLT-4 [1]) [%] | viability at 1 µM (RS4-11 [2]) [%] | further results
1 | CN1C(=O)CCC(N2Cc3cc(-c4ccc(OCC(=O)N/N=C/c5c(C(F)(F)F)ccc(Cl)c5Cl)cc4)ccc3C2=O)C1=O (centres undefined) | – | – | – | – | > 100 | > 100 | –
2 | O=C(COc1ccccc1-c1cccc2c1CN(C1CCC(=O)NC1=O)C2=O)NCc1cn(S(=O)(=O)c2ccccc2)c2ccccc12 (centres undefined) | 166 | – | – | – | – | – | –
3 | O=C(COc1ccc(-c2ccc3c(c2)CN(C2CCC(=O)NC2=O)C3=O)cc1)N/N=C/c1c(C(F)(F)F)ccc(Cl)c1Cl (centres undefined) | – | – | – | – | 67 | 54 | –
4 | O=C(COc1ccccc1-c1cccc2c1CN(C1CCC(=O)NC1=O)C2=O)NCc1nn(Cc2ccccc2)c2ccccc12 (centres undefined) | 785 | – | – | – | – | – | –
5 | O=C(COc1ccc(-c2ccc3c(c2)CN(C2CCC(=O)NC2=O)C3=O)cc1)N/N=C/c1c(Cl)ccc(C(F)(F)F)c1Cl (centres undefined) | – | – | – | – | 74 | 47 | –
6 | O=C1CCC(N2Cc3cc(CNC(=O)C(F)(F)c4ccc(Cl)cc4)ccc3C2=O)C(=O)N1 (centres undefined) | – | – | 0.1 | – | – | – | –
7 | CN1C(=O)CCC(N2Cc3cc(-c4ccc(OCC(=O)N/N=C/c5c(Cl)ccc(C(F)(F)F)c5Cl)cc4)ccc3C2=O)C1=O (centres undefined) | – | – | – | – | > 100 | > 100 | –
8 | O=C(COc1ccccc1-c1cccc2c1CN(C1CCC(=O)NC1=O)C2=O)NCCc1cn(S(=O)(=O)c2ccccc2)c2ccccc12 (centres undefined) | 168 | – | – | – | – | – | –

Second part, led by results:

Row | DC50 [3] [nM] | IC50 (MM1.S) [nM] | IC50 (RS4-11 [4]) [nM] | IC50 (MOLT-4 [5]) [nM] | SMILES | viability at 1 µM (MOLT-4 [1]) [%] | viability at 1 µM (RS4-11 [2]) [%] | further results
9 | – | > 10000 | > 1000 | > 10000 | CN1CCN(c2ncc(/C=N/NC(=O)COc3ccccc3-c3cccc4c3CN(C3CCC(=O)N(C)C3=O)C4=O)s2)CC1 (centres undefined) | > 100 | 96 | –
10 | – | > 10000 | 71 | > 1000 | CN1CCN(c2ncc(/C=N/NC(=O)COc3ccccc3-c3cccc4c3CN(C3CCC(=O)NC3=O)C4=O)s2)CC1 (centres undefined) | 66 | 24 | viability at 0.5 µM (RS4-11 [6]): 23%; viability at 0.1 µM (RS4-11 [7]): 56%
11 | 50 | 370 | 2 | 260 | O=C(COc1ccccc1-c1cccc2c1CN(C1CCC(=O)NC1=O)C2=O)N/N=C/c1nn(Cc2ccccc2)c2ccccc12 (centres undefined) | 7 | 11 | Activity [8]: 100%; Activity [9]: Dose-Dependent Effect; Activity [10]: > 50%; viability at 0.5 µM (RS4-11 [6]): 6%; Activity [11]: Active; Activity [12]: 100%; Activity [13]: Tde; viability at 0.1 µM (RS4-11 [7]): 86%
12 | 154 | 131 | 7 | 175 | O=C(COc1ccccc1-c1cccc2c1CN(C1CCC(=O)NC1=O)C2=O)N/N=C/c1cn(S(=O)(=O)c2ccccc2)c2ccccc12 (centres undefined) | 43 | 15 | Activity [8]: 100%; Activity [9]: Dose-Dependent Effect; Activity [10]: > 50%; viability at 0.5 µM (RS4-11 [6]): 5%; Activity [11]: Active; Activity [12]: 100%; Activity [13]: Tde; viability at 0.1 µM (RS4-11 [7]): 52%
13 | – | > 10000 | > 10000 | > 10000 | Cc1nc2ccccn2c1/C=N/NC(=O)COc1ccccc1-c1cccc2c1CN(C1CCC(=O)N(C)C1=O)C2=O (centres undefined) | > 100 | 89 | –
14 | – | > 1000 | > 1000 | > 1000 | CN1C(=O)CCC(N2Cc3c(cccc3-c3ccccc3OCC(=O)N/N=C/c3nn(Cc4ccccc4)c4ccccc34)C2=O)C1=O (centres undefined) | > 100 | 98 | –
15 | – | > 10000 | > 1000 | > 1000 | CN1C(=O)CCC(N2Cc3c(cccc3-c3ccccc3OCC(=O)N/N=C/c3cn(S(=O)(=O)c4ccccc4)c4ccccc34)C2=O)C1=O (centres undefined) | > 100 | 97 | –
16 | – | > 10000 | 7 | > 10000 | Cc1nc2ccccn2c1/C=N/NC(=O)COc1ccccc1-c1cccc2c1CN(C1CCC(=O)NC1=O)C2=O (centres undefined) | 52 | 25 | viability at 0.5 µM (RS4-11 [6]): 15%; viability at 0.1 µM (RS4-11 [7]): 46%
